Data on 4 compounds can be found in US20260345590A1, “COMBINATIONS OF ESTROGEN RECEPTOR DEGRADERS AND AKT INHIBITORS” (Arvinas Operations, Inc., priority 2023, published 2026).

Structures are written as SMILES.

The nature of series [1]: exposure of epimer Compound C relative to Compound A (preclinical data). In kind it is in vivo.
In another series the target is T1, ER (Homo sapiens, UniProt P03372).
T1 construct: cells or constructs not described in excerpts
T1 sequence (P03372 1-595): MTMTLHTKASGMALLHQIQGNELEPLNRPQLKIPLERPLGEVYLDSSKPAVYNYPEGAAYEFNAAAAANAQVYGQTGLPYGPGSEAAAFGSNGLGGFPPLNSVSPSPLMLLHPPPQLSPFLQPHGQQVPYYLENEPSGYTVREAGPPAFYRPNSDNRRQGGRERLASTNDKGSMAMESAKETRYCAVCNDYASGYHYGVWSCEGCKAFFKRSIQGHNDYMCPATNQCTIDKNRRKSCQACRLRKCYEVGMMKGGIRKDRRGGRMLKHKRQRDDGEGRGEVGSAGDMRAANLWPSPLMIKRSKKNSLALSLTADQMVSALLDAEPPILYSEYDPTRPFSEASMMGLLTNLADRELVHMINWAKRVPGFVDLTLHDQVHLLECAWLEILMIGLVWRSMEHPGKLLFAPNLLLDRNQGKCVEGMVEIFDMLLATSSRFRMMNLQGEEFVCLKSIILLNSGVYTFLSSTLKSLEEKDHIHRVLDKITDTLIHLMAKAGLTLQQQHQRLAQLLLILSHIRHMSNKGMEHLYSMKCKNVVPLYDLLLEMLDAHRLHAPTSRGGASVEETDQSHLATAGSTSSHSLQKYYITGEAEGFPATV
In words: degradation of the ER.

Another series concerns AKT isoforms. Particulars: cited from earlier work.
The nature of series [2]: Biopharmaceutics Classification System classification. In kind it is physicochemical. As to conditions: BCS Class IV.
Another series concerns MCF7 cells. In words: Dose-Response Matrix Assay (cell viability, Cell-Titer Glo, Combenefit synergy analysis). In kind it is cell-based. Particulars: 8-point curve 100 to 0.046 nM, Day 5. As for the experimental part:
Cells were seeded at 2×10^3 cells in 200 μl of media per well in 96 well plates and incubated overnight at 37 °C. […] At Day 5 cell viability was measured using Cell-Titer Glo and CTG data were analyzed with the Combenefit Software (5).

On to `O=C1CC[C@@H](N2Cc3cc(N4CCN(CC5CCN(c6ccc([C@@H]7c8ccc(O)cc8CC[C@@H]7c7ccccc7)cc6)CC5)CC4)ccc3C2=O)C(=O)N1` [Compound C], for which the “exposure of Compound C compared to Compound A” value in series [1] is reported as under 26%. The “degradation of the ER” value on ER is “does not degrade the ER”.
As for `NC1(C(=O)N[C@@H](CCO)c2ccc(Cl)cc2)CCN(c2ncnc3[nH]ccc23)CC1` [Capivasertib, 4-amino-N-[(1S)-1-(4-chlorophenyl)-3-hydroxypropyl]-1-(7H-pyrrolo[2,3-d]pyrimidin-4-yl)piperidine-4-carboxamide], the “binding to and inhibition of AKT isoforms” value in the series with AKT isoforms is “binds to and inhibits all AKT isoforms”.
As to `O=C1CC[C@H](N2Cc3cc(N4CCN(CC5CCN(c6ccc([C@@H]7c8ccc(O)cc8CC[C@@H]7c7ccccc7)cc6)CC5)CC4)ccc3C2=O)C(=O)N1` [Compound A, (S)-3-(5-(4-((1-(4-((1R,2S)-6-hydroxy-2-phenyl-1,2,3,4-tetrahydronaphthalen-1-yl)phenyl)piperidin-4-yl)methyl)piperazin-1-yl)-1-oxoisoindolin-2-yl)piperidine-2,6-dione], in series [2], the permeability entry is recorded as “low permeability” and the solubility entry is reported as “low solubility”. Also, the “synergy on cell viability” value in the series with MCF7 cells (combination with afuresertib) is given as “evidence of synergy”. Moreover, in the series with MCF7 cells (combination with capivasertib), the “synergy on cell viability” value is “evidence of synergy”.
Turning to `Cn1ncc(Cl)c1-c1cc(C(=O)N[C@H](CN)Cc2cccc(F)c2)sc1Cl` [Afuresertib, N-[(2S)-1-amino-3-(3-fluorophenyl)propan-2-yl]-5-chloro-4-(4-chloro-2-methyl-3-pyrazolyl)-2-thiophenecarboxamide], the “mode of AKT kinase inhibition” value with AKT isoforms is “reversible, ATP-competitive”. The “pan-AKT kinase inhibition potency” value in the series with AKT isoforms (reversible, ATP-competitive) is “low-nanomolar”.
